Columns and labels:
[1] = target: T1, recombinant soluble tissue factor and recombinant human factor VIIa (Homo sapiens, UniProt P08709); assay: TF-VIIa Assay; format: biochemical; details: chromogenic substrate, 60 min at room temperature, OD 405 nm
T1 construct: purchased American Diagnostica, Greenwich Conn; (factor VIIa); host or cells: soluble TF made in house in E. coli
Method: In this assay 100 nM recombinant soluble tissue factor and 2 nM recombinant human factor VIIa are added to a 96-well assay plate containing 0.4 mM of the substrate, N-Methylsulfonyl-D-phe-gly-arg-p-nitroaniline and either inhibitor or buffer (5 mM CaCl2,50 mM Tris-HCl, pH 8.0, 100 mM NaCl, 0.1% BSA). The reaction, in a final volume of 100 ul is measured immediately at 405 nm to determine background absorbance. The plate is incubated at room temperature for 60 min, at which time the rate of hydrolysis of the substrate is measured by monitoring the reaction at 405 nm for the release of p-nitroaniline. Percent inhibition of TF-VIIa activity is calculated from OD405 nm value from the experimental and control sample.
Recombinant soluble TF, consisting of amino acids 1-219 of the mature protein sequence was expressed in E. coli and purified using a Mono Q Sepharose FPLC. Recombinant human VIIa was purchased from American Diagnostica, Greenwich Conn. and chromogenic substrate N-Methylsulfonyl-D-phe-gly-arg-p-nitroaniline was prepared by American Peptide Company, Inc., Sunnyvale, Calif.

human factor Xa = target: T2, human factor Xa (Homo sapiens, UniProt P00742); assay: Xa Assay; format: biochemical; details: percent inhibition of Xa activity; test concentration not given; 60 min
T2 construct: purchased Enzyme Research Laboratories, South Bend Ind
T2 sequence (P00742 235-488 limits assumed): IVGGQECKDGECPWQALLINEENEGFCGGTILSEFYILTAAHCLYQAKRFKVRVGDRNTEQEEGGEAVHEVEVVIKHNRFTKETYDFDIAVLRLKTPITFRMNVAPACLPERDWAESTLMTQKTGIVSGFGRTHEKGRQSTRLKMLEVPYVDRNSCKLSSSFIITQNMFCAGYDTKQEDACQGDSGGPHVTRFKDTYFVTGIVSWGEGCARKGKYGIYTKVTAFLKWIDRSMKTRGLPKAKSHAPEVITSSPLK
T2 sequence (P00742 41-179 limits assumed): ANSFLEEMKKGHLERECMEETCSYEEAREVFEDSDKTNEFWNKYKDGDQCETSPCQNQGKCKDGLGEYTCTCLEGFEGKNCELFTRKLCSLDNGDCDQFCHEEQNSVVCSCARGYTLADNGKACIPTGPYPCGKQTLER

T1 sequence (P08709 213-466 limits assumed): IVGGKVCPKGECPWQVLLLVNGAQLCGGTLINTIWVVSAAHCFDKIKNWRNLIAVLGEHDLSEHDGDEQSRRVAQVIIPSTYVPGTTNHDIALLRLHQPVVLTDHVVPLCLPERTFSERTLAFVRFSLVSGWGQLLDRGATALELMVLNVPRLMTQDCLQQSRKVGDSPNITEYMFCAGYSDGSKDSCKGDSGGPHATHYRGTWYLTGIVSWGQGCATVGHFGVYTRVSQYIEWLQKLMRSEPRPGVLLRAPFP
T1 sequence (P08709 61-212 limits assumed): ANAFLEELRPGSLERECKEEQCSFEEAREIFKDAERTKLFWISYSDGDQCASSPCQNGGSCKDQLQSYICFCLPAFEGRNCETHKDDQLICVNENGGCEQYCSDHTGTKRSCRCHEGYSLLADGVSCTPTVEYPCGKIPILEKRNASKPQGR
T1 sequence (P13726 33-251 partner limits assumed): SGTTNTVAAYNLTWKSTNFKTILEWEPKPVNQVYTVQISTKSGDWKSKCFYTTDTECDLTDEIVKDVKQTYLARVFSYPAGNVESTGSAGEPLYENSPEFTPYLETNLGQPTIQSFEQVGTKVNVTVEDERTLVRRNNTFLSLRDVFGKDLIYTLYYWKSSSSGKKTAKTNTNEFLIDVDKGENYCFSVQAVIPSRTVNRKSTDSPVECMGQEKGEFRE

`N=C(N)c1ccc(CNC(=O)CC2=C(c3ccccc3)C(=O)C=C(NCCc3ccccc3)C2=O)cc1` [Example 2] was tested, and the “TF-VIIA IC50” value [1] was 13 µM and the “Factor Xa (cell printed as %, in the IC50 column)” value (human factor Xa) was 13%.
